Columns and labels:
[1] = target: T1, ATP-dependent translocase ABCB1 (Homo sapiens, UniProt P08183); assay: TP_TRANSPORTER: inhibition of Azidopine photoaffinity labelling (Azidopine: 0.1 uM, Astemizole: 10 uM) in membranes from K562/DOX cells; assay type: functional, cell membranes, Membrane; details: k562/adr
[2] = target: T1, ATP-dependent translocase ABCB1; assay: TP_TRANSPORTER: increase in Doxorubicin intracellular accumulation (Doxorubicin: 4 uM, Astemizole: 3 uM) in K562/DOX cells; assay type: functional, cell-based; details: k562/adr

T1 sequence (P08183 whole entry): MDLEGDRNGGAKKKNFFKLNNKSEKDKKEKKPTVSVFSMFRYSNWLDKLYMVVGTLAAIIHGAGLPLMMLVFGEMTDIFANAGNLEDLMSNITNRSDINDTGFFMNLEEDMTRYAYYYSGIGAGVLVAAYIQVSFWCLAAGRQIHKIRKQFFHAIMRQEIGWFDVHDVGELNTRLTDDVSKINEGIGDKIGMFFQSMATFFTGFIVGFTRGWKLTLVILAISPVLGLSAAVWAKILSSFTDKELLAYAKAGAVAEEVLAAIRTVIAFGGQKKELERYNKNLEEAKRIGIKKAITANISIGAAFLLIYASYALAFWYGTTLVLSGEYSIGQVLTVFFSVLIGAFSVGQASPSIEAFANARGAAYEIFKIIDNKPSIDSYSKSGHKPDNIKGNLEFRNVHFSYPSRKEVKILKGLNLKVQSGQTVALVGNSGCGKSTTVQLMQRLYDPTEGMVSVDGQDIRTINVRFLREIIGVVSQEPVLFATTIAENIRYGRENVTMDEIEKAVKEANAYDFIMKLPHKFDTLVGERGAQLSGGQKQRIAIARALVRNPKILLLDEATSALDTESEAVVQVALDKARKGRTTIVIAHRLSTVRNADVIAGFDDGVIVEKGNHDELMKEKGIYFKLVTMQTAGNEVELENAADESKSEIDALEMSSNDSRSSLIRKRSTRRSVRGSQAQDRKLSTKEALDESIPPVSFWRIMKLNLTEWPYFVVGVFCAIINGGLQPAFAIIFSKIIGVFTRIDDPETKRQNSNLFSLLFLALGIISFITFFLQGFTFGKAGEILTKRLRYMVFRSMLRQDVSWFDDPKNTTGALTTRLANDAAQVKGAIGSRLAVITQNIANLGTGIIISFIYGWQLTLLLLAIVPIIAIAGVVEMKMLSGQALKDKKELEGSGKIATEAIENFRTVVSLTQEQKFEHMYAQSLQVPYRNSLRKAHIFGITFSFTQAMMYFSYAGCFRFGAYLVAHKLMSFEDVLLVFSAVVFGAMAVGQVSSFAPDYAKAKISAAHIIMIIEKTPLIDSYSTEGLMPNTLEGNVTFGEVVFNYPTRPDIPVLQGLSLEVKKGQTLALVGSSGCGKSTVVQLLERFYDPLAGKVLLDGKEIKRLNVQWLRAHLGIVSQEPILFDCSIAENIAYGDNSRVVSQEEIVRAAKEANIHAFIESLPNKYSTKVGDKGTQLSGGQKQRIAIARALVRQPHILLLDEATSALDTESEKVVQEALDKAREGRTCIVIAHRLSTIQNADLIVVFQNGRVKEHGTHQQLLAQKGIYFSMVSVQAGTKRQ

## COc1ccc(CCN2CCC(Nc3nc4ccccc4n3Cc3ccc(F)cc3)CC2)cc1 [ASTEMIZOLE]
[1]
  Activity: inhibitor [+]
[2]
  Activity: inhibitor [+]

— ChEMBL document CHEMBL2074023, “Reversal of acquired resistance to doxorubicin in K562 human leukemia cells by astemizole” (Biol Pharm Bull, 2000)
